From article PMC9208756, “A dual-target herbicidal inhibitor of lysine biosynthesis” (eLife, 2022)
Values joined by “and” are separate entries in the source; they are usually repeats but may differ in a detail not shown here. Equal values may be shown once. Read-outs that look alike come from different tables or passages of the source. Each block holds one molecule with its values, some of them ahead of it.

Legend:
AtDHDPR = experiment: DHDPR enzyme inhibition, comparisons over both isoforms; assay type: biochemical, Arabidopsis thaliana
Protocol: (§1) Briefly, reaction mixtures were incubated at 30℃ for 12 min before a second 60-s incubation following the addition of excess E. coli DHDPS (51 µg ml^−1) for generation of the DHDP substrate. The relevant DHDPR isoform (2.6 µg ml^−1) was added to initiate the reaction, and substrate turnover measured spectrophotometrically at 340 nm via the associated oxidation of the cofactor NADPH. Experiments were performed in technical triplicates.

AtDHDPR2 = biological target: T1, AtDHDPR2 (Arabidopsis thaliana, UniProt Q8LB01); experiment: DHDPR enzyme inhibition assay, recombinant AtDHDPR2; assay type: biochemical
T1 construct: made in house
T1 sequence (Q8LB01 54-349): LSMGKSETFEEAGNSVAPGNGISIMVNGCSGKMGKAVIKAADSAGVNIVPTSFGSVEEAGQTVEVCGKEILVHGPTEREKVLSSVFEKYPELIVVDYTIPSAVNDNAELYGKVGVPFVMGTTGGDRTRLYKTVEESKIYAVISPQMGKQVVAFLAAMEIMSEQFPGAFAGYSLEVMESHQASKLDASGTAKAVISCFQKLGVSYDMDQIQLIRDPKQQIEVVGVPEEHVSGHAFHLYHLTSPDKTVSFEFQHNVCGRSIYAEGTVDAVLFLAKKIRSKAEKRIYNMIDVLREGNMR
Protocol: as §1

AtDHDPR1 = biological target: T2, AtDHDPR1 (Arabidopsis thaliana, UniProt O80574); experiment: DHDPR enzyme inhibition assay, recombinant AtDHDPR1; assay type: biochemical
T2 construct: made in house
T2 sequence (O80574 52-347): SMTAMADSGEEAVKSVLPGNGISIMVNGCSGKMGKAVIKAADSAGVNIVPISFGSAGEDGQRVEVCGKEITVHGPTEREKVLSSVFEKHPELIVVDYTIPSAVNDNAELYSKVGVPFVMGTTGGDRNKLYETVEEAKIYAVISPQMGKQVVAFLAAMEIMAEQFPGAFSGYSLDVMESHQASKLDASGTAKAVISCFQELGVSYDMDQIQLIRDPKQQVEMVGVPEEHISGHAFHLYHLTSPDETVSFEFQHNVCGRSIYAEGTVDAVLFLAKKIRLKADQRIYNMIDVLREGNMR
Protocol: as §1

AtDHDPS1 = biological target: T3, AtDHDPS1 (Arabidopsis thaliana, UniProt Q9LZX6); experiment: DHDPS enzyme inhibition assay, recombinant AtDHDPS1; assay type: biochemical
T3 construct: made in house
T3 sequence (Q9LZX6 40-365): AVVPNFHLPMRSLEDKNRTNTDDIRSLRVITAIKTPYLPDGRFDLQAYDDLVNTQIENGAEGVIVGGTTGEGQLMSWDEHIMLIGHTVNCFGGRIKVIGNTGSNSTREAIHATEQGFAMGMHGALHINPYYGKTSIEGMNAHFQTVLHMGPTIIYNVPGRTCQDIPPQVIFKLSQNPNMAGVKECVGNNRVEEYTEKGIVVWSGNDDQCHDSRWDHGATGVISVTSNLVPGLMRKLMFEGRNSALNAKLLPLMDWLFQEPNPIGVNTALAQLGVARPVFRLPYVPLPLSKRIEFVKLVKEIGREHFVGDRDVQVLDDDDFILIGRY

AtDHDPS2 [1] = biological target: T4, AtDHDPS2 (Arabidopsis thaliana, UniProt Q9FVC8); experiment: DHDPS enzyme inhibition assay, recombinant AtDHDPS2; assay type: biochemical
T4 construct: made in house
T4 sequence (Q9FVC8 40-365): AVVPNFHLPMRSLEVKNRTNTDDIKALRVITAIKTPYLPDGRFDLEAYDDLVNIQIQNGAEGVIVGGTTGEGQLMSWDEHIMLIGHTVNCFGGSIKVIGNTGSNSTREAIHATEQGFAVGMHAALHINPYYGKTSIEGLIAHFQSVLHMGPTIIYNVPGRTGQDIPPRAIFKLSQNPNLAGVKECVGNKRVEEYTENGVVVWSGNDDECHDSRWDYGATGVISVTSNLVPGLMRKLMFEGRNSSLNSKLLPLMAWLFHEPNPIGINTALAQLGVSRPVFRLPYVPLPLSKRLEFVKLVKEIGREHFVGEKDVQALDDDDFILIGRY

AtDHDPS2 [2] = biological target: T4, AtDHDPS2; set-up: method as in Soares da Costa et al., 2021; settings: previously reported; ref Soares da Costa et al., 2021; cited from earlier work
Lolium rigidum = experiment: Herbicidal activity, pre-emergence treatment of soil-grown plants; assay type: in vivo
Protocol: . Pre-wet seed-raising soil (pH 5.5) (Biogro, Dandenong South, VIC, Australia) supplemented with 0.22% (wt/wt) Nutricote N12 Micro 140 day-controlled release fertiliser (Yates, Sydney, NSW, Australia) was used. Ten seeds were sown at a depth of 0.5 cm into pots of pre-wet soil, following stratification at 4℃ for 21 days in the dark. Compounds dissolved in DMSO were diluted to working concentrations in H2O containing 0.01% (vol/vol) Agral (Syngenta, North Ryde, NSW, Australia) to a final DMSO concentration of 2% (vol/vol). Treatments were given by pipetting 2.0 ml of MBDTA-2, vehicle control or positive control (chlorosulfuron PESTANAL [Sigma-Aldrich, North Ryde, NSW, Australia]) directly onto seeds upon sowing and on each of the subsequent 2 days. Plants were grown in a chamber at 22℃ under a 16 hr light (100 µmol m^−2 s^−1)/8 hr dark schedule for 14 days before photos were taken. Roots and shoots were separated prior to drying at 70℃ for 72 hr. Experiments were performed in biological triplicates.

[3] = [HBDTA-2] 0.000125 M, replicates 1-3
[4] = [HBDTA-2] 0.0005 M, replicates 1-3
[5] = [HBDTA] 0.000125 M, replicates 1-3
[6] = [MBDTA-2] 0.000125 M, limiting substrate and cofactor, replicates 1-3
[7] = 1200 mg l^−1, three pre-emergence treatments, 14 days, vs vehicle
[8] = Treated, 1200 mg l^−1, biological triplicates

SMILES: O=C(O)CN1C(=O)S/C(=C\c2ccc(O)cc2)C1=O [HBDTA, (Z)-2-(5-(4-hydroxybenzylidene)-2,4-dioxothiazolidin-3-yl)acetic acid]
fold less potent at the DHDPR target site relative to MBDTA-2 (AtDHDPR; ratio of IC50 values): > 18 fold
remaining activity at 125 µM (AtDHDPR2; [3]): 65.7%
remaining activity at 500 µM (AtDHDPR2; [4]): 0%
IC50 (AtDHDPR2; substrate and cofactor at limiting concentrations, read-out: IC50 against AtDHDPR2): 155 ± 0.9 µM
remaining activity at 125 µM (AtDHDPR1; [3]): 83.9%
remaining activity at 250 µM (AtDHDPR1; [HBDTA-2] 0.00025 M, replicates 1-3): 8.06%
remaining activity at 500 µM (AtDHDPR1; [4]): 0%
IC50 (AtDHDPR1; substrate and cofactor at limiting concentrations, read-out: IC50 against AtDHDPR1): 169 ± 0.92 µM
remaining activity at 125 µM (AtDHDPS1; [5]): 31.1%
IC50 (AtDHDPS1; recombinant enzyme): 100 ± 0.95 µM
remaining activity at 125 µM (AtDHDPS2 [1]; [5]): 37%
IC50 (AtDHDPS2 [1]; recombinant enzyme): 105 ± 1.04 µM

mechanism of inhibition (AtDHDPR; from IC50 shift with excess substrate and cofactor): competitive inhibitor
fold greater IC50 with excess vs limiting substrate and cofactor (AtDHDPR2; AtDHDPR2): 8 fold
IC50 (AtDHDPR2; IC50 against AtDHDPR2, excess substrate and nucleotide cofactor, 10-fold above KM): 69.5 ± 1.06 µM
IC50 (AtDHDPR2; IC50 against AtDHDPR2, substrate and cofactor at limiting concentrations): 8.58 ± 1.19 µM
remaining activity at 125 µM (AtDHDPR2; [6]): 0%
remaining activity at 250 µM (AtDHDPR2; [MBDTA-2] 0.00025 M, limiting substrate and cofactor, replicates 1-3): 0%
remaining activity at 500 µM (AtDHDPR2; [MBDTA-2] 0.0005 M, saturating substrate and cofactor, replicates 1-3): 0.507%
fold greater IC50 with excess vs limiting substrate and cofactor (AtDHDPR1; AtDHDPR1): 10 fold
IC50 (AtDHDPR1; IC50 against AtDHDPR1, excess substrate and nucleotide cofactor, 10-fold above KM): 72.7 ± 1.07 µM
IC50 (AtDHDPR1; IC50 against AtDHDPR1, substrate and cofactor at limiting concentrations): 6.92 ± 0.92 µM
remaining activity at 125 µM (AtDHDPR1; [6]): 9.11%
remaining activity at 125 µM (AtDHDPR1; [MBDTA-2] 0.000125 M, saturating substrate and cofactor, replicates 1-3): 7.04%
SMILES: COc1ccc(/C=C2\SC(=O)N(CC(=O)O)C2=O)cc1 [MBDTA-2, (Z)-2-(5-(4-methoxybenzylidene)-2,4-dioxothiazolidin-3-yl)acetic acid]
IC50 (AtDHDPS2 [2]): 64 ± 1 µM
effect on germination and growth (Lolium rigidum; 1200 mg l^−1): inhibition of plant germination and growth
fold reduction in root dry weight (Lolium rigidum; [7]): ~ 2 fold
fold reduction in shoot dry weight (Lolium rigidum; [7]): ~ 5 fold
fold reduction in shoot fresh weight (Lolium rigidum; [7]): ~ 4 fold
Dry Weight, Roots (Lolium rigidum; [8]): 7 mg and 10 mg
Dry Weight, Shoots (Lolium rigidum; [8]): 10 mg and 8 mg
Fresh Weight, Roots (Lolium rigidum; [8]): 44 mg and 33 mg and 58 mg
Fresh Weight, Shoots (Lolium rigidum; [8]): 71 mg and 107 mg and 109 mg
